Data reported in patent US20240174744A1, “METHODS OF TREATMENT USING PROTEIN BINDERS TO IRHOM2 EPITOPES” (SCIRHOM GMBH, priority 2021, published 2024).

Tested on: LPS-induced release of TNFα from THP-1 cells
Experiment: ELISA-based TNFα release assay, LPS-stimulated THP-1 cells
Assay type: cell-based, human
Conditions: 10 μg/ml, Batimastat 10 μM, LPS 50 ng/ml, 2 hours
Description: In the following study, ELISA-based TNFα release assays were performed to verify the inhibitory effects of the purified antibodies of the present disclosure on LPS-induced release of endogenous TNFα from human THP-1 monocytic cells.
In brief, on day 1, Nunc black MaxiSorp® 96-well plates (Thermo Fisher Scientific, USA) were coated overnight with 100 μl per well of mouse anti-human TNFα capture antibody (provided as part of the DuoSet ELISA kit) at 4 μg/ml TBS at 4° C. On day 2, the capture antibody solution was removed and MaxiSorp® plates were blocked with 300 μl per well of TBS, 1% BSA at room temperature for 3 hours. […] Using an infinite M1000 (Tecan Group, Switzerland) microplate reader, the fluorescence of each well was collected at an excitation wavelength of 435 nm and an emission wavelength of 555 nm. […]

## CNC(=O)[C@H](Cc1ccccc1)NC(=O)[C@H](CC(C)C)[C@H](CSc1cccs1)C(=O)NO [Batimastat]
Antibodies purified from hybridoma supernatants
  inhibition of LPS-induced release of TNFα from THP-1 cells: 96.2%
Recombinant antibodies (Expi293F)
  inhibition of LPS-induced release of TNFα from THP-1 cells: 96.2%
